Tests used:
S. pyogenes T = assay: Dose dependence of bacterial viability (CFU counting, Hill fit); format: cell-based, Streptococcus pyogenes; settings: for EC50: read-out: K 1/2 (concentration yielding half-variation in Δlogmax), S. pyogenes T (converted); for Δlogmax, S. pyogenes T: maximum variation in viability
Excerpt: First, the substitution of the fatty amino chain of 18 carbon atoms of the reference compound DICAM 2 by either an OMe group (methylated tripeptide DICAM 5) or an amine with 12 carbon atoms (DICAM 9) abolished the activity against all three pathogens. However, the activity remained intact when the chain of the fatty amine of prototypes DICAMs 1 and 4 was two carbon atoms shorter (DICAM 10 and DICAM 12, respectively), based on S. pneumoniae and S. pyogenes results. […] Third, Glu and Ala were tolerated as C-terminal residues of the lipotripeptides. […] In addition, deletion of the C-terminal Glu (DICAM 13) eradicated the activity against S. pneumoniae and S. aureus. However, a delay and small inhibition of S. pyogenes ^T growth was still observed. Fourth, Glu (DICAMs 19 and 20) and Orn (DICAMs 21 and 22) were tolerated as N-terminal residues, with the impact of these modifications being pathogen-dependent. […] SAR studies continued by measuring the dose dependence of DICAM’s activity at T1 with all the compounds found to be active against S. pyogenes or S. aureus in the initial screening, and all but one compound in the case of S. pneumoniae. The OD values of bacterial cultures were monitored after DICAM addition, and the decrease in the number of viable bacteria was measured relative to controls (Figures 4–6; Supplementary Figure S1). As antibacterial efficacy may decline with the bacterium dose in the inoculum ([Belley et al., 2009]; [Udekwu et al., 2009]; [Luca et al., 2013]), the assays were performed using the bacterial concentrations necessary for the fluorescence experiments in Section 2.3 (10^7–10^8 CFU/mL). At these high bacterial densities, MICs were determined as the DICAM concentration at which bacteria neither grow nor are killed (the stationary concentration (SC)), following [Udekwu et al., 2009]. By fitting the logarithmic plot of cell viability decrease vs. the DICAM dose to a Hill function (see Section 5.2.3.1) we were able to determine the maximum variation in viability (Δlogmax = ∆log f - ∆log 0, where ∆log f and ∆log 0 are the upper and lower limits of Δlog) in the assay conditions, the SC concentration (Δlog = 0), the dose required for half-variation in Δlogmax (K 1/2), and the cooperativity of the antimicrobial effect (N H).
Susceptibility to DICAMs was first tested by growth-inhibition assays at 50 and 100 μM of compound. Briefly, working solutions at 5 mM or 10 mM DICAM in pure DMSO were prepared from DICAM stocks (40 mM in pure DMSO) and diluted with fresh culture medium to 5× the desired final concentration. Aliquots (50 µL) of these solutions were added to 200 µL of bacterium cultures grown to early exponential phase (OD550/600 c. a. 0.15–0.2 in sterile 96-well plates (Cultek, Spain). Incubation continued for 10 h at 37°C and turbidity (OD550/600) values were measured every 20 min to monitor growth and lysis, using a VersaMax microplate reader (Molecular Devices; United Kingdom). Next, the activity dependence on DICAM’s dose was examined by measuring the turbidity of treated and untreated cultures as a function of time. Also, the decay of bacterial viability (CFU/mL) at selected times of treatment was assessed by colony counting on LB-agar or TSA plates after overnight incubation at 37°C. By default, 10 μL of 10-fold serially diluted samples were plated, which set the lower detection limit at 10^2 CFU/mL (10^1 CFU/mL when 100 μL of the undiluted sample was seeded).
As antibacterial efficacy may decline with the bacterium dose in the inoculum ([Belley et al., 2009]; [Udekwu et al., 2009]; [Luca et al., 2013]), activity assays were performed using the bacterial concentrations required for the fluorescence experiments in Section 2.3 (10^7–10^8 CFU/mL). At such bacterial densities, MICs were determined as the DICAM concentration at which bacteria neither grow nor are killed under assay conditions (the stationary concentration (SC)), as indicated in Section 2.2. […]

[1] = system: Streptococcus pneumoniae R6; assay: Growth inhibition / lysis screening of planktonic cultures (OD550/600); format: cell-based; parameters: key: (+++) full inhibition; (++) partial inhibition; (+) growth retardation; -: (−) no effect; settings: S. pneumoniae R6, 50 and 100 μM compound added at early logarithmic phase (T1), OD550/600 followed 10 h, 37°C
Outline: (§1)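 Early exponential-phase cultures (OD550/600 c. a. 0.15–0.2) were treated with DICAMs at 50 and 100 μM final, diluted from DMSO stocks into medium, and incubated 10 h at 37°C. Turbidity (OD550/600) was read every 20 min against untreated controls to track growth inhibition and lysis.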

Escherichia coli DH10B = assay: Growth inhibition screening of planktonic cultures (OD550/600); format: cell-based; parameters: key: (+++) full inhibition; (++) partial inhibition; (+) growth retardation; -: (−) no effect; settings: E. coli DH10B, 50 and 100 μM compound added at T1, OD550/600 followed 10 h, 37°C
Outline: as §1

Staphylococcus aureus T = assay: as above; format: cell-based; parameters: key: (+++) full inhibition; (++) partial inhibition; (+) growth retardation; -: (−) no effect; settings: S. aureus T, 50 and 100 μM compound added at T1, OD550/600 followed 10 h, 37°C
Outline: as §1

[2] = system: human fetal lung fibroblasts IMR-90; format: cell-based; settings: 48 h
Procedure: DICAM’s cytotoxicity was determined employing a modified MTT assay as described elsewhere ([Antúnez-Mojica et al., 2016]) using human lung carcinoma epithelial cells A549, human fetal lung fibroblasts IMR-90, and human HeLa cervix carcinoma cells treated with increasing concentrations of DICAMs (0.8–200 µM range). A549 cells were grown in RPMI 1640 (Gibco; Fisher Scientific, Spain) supplemented with 10% FCS, 2 mM glutamine, 100 IU/mL penicillin and 100 μg/mL streptomycin. IMR-90 and HeLa cells were cultured in DMEM (Gibco; Fisher Scientific, Spain) supplemented with 10% FCS, 2 mM L-glutamine, 1 mM pyruvate, […] penicillin, 100 μg/mL streptomycin and 40 μg/mL gentamycin. Cell viability was assessed after 48 h exposure to DICAMs. Vinblastine was used as a positive control. IC50 value is the concentration that gives 50% inhibition of cell growth and was determined using SigmaPlot (Systat) fitting to a Four Parameter Logistic curve.

[3] = 2 h treatment, BHI, 37°C, Hill fit

SMILES | SC (stationary concentration, Δlog = 0), S. pyogenes T (S. pyogenes T; 2 h treatment, BHI medium, 37°C, added at T1, 10^7–10^8 CFU/mL, CFU vs untreated controls, Hill fit) | EC50 (S. pyogenes T; [3]) [µM] | Δlogmax, S. pyogenes T (S. pyogenes T; [3]) [logarithmic units] | Growth halt or lysis (50/100 μM), Spn [1] | Growth halt or lysis (50/100 μM), Ec (Escherichia coli DH10B) | Growth halt or lysis (50/100 μM), Sa T (Staphylococcus aureus T) | IC50 [2] [µM] | Decrease of the number of viable bacteria in the inoculum within 2 h (S. pyogenes T; S. pyogenes T, BHI, 37°C) | Reduction of bacterial viability at 3 × SC, S. pyogenes T (S. pyogenes T; after 2 h of incubation at 3 × SC)
CCCCCCCCCCCCCCCCCCNC(=O)[C@H](CCC(=O)O)NC(=O)[C@H]1CCCN1C(=O)[C@H](CCCN)NC(=O)OCc1ccccc1 [DICAM 21, Cbz-Orn- Pro -Glu-NH-C18H37] | ∼10 µM | 38 ± 40 | 4 ± 2 | +++ | - | + | 86 ± 15 |  | 
CCCCCCCCCCCCCCCCCCNC(=O)[C@H](CCC(=O)O)NC(=O)[C@H]1CCCN1C(=O)[C@H](C)NC(C)=O [DICAM 24, Ac-Ala- Pro -Glu-NH-C18H37] |  | 7.2 ± 0.4 | 5.3 ± 0.1 | +++ | - | ++ | 43.8 ± 0.6 | 99.9–99.99% | 94.5%–99.9

Source: paper PMC11329928, “Design, synthesis and structure-activity relationship (SAR) studies of an unusual class of non-cationic fatty amine-tripeptide conjugates as novel synthetic antimicrobial agents” (Frontiers in Pharmacology, 2024)
